Measurements published in ChEMBL document CHEMBL1144938, “Human beta-secretase (BACE) and BACE inhibitors” (J Med Chem, 2003).
Numbered stars: 1 amine (or outer) side, 2 acyl side, 3 side chain; on linkers, the order of the positions; unused ones are H or OH. Square brackets hold non-standard residues; d marks the D form. Peptide text beside a SMILES is read from it. Sta = CC(C)C[C@H](N)[C@@H](O)CC(=O)O; X1 = CCC(O)[C@H](N[*:1])C(=O)[*:2]; Orn = NCCC[C@H](N)C(=O)O

How the values were obtained:
Beta-secretase 1 [1] = target: T1, Beta-secretase 1 (Homo sapiens, UniProt P56817); test: Compound was tested for its inhibitory activity against human beta-Secretase (BACE)
Beta-secretase 1 [2] = target: T1, Beta-secretase 1; test: Compound was tested for its effective concentration against human beta-Secretase (BACE)

T1 sequence (P56817 whole entry): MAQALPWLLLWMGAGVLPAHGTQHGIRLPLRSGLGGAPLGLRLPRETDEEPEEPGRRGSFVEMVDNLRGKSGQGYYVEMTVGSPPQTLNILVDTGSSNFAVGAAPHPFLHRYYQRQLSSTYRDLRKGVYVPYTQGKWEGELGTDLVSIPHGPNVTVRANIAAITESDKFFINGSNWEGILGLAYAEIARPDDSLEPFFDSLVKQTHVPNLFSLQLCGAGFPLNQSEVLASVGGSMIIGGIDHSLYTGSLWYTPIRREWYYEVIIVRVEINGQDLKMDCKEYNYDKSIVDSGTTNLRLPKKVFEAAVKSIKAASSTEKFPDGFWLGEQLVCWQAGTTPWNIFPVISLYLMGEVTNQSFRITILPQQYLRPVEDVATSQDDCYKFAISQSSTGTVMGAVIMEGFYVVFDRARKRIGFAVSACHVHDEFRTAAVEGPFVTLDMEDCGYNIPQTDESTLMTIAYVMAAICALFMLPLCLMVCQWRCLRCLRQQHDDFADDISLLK

Compound	IC50 (Beta-secretase 1 [1]) [nM]	EC50 (Beta-secretase 1 [2]) [nM]
CC(C)[C@H](NC(=O)C[C@H](O)[C@H](Cc1cc(F)cc(F)c1)NC(=O)C(O)c1ccccc1-c1ccccc1)C(=O)Nc1cc(C(=O)O)cc(C(=O)O)c1 (stereo partly specified)	20	10000
COC(=O)c1cc(NC(=O)[C@@H](NC(=O)C[C@H](O)[C@H](Cc2cc(F)cc(F)c2)NC(=O)C(O)c2ccccc2-c2ccccc2)C(C)C)cc(C(=O)OC)c1 (stereo partly specified)	120	4000
CSCC[C@H](NC(=O)[C@@H](NC(=O)OC(C)(C)C)C(C)C)C(=O)N[C@@H](CC(C)C)[C@@H](O)C[C@@H](C)C(=O)N[C@H](C(=O)NCc1ccccc1)C(C)C	2	–
CCC(O)[C@H](NC(=O)[C@@H](N)CCCN)C(=O)N[C@@H](CCC(=O)O)C(=O)N[C@@H](CCC(=O)O)C(=O)N[C@H](C(=O)N[C@@H](CO)C(=O)N[C@@H](CCC(=O)O)C(=O)N[C@H](C(=O)N[C@@H](CCSC)C(=O)N[C@@H](CC(C)C)[C@@H](O)CC(=O)N[C@H](C(=O)N[C@@H](C)C(=O)N[C@@H](CCC(=O)O)C(=O)N[C@@H](Cc1ccccc1)C(=O)O)C(C)C)C(C)C)[C@@H](C)CC (stereo partly specified) (H-[Orn][X1]EEISEVM[Sta]VAEF-OH)	30	–
